Experimental data reported in patent US12121565B2, “Methods of treatment of specific cancers with NLRP3 inhibitors and anti-PD1/PD-L1 antibodies” (Duke University, priority 2019, dated 2024).

Experiments:
[1] = test system: BRAFV600E PTEN−/− melanoma cell line; assay: In vitro treatment of melanoma cell line followed by Western blot, qRT-PCR, IP, ASC polymerization or ELISA; format: cell-based, mouse; settings: with or without NLRP3 inhibitor MCC950
Description: Braf^V600EPten^−/− (male, BPD6 (40)), Braf^V600EPten^−/−-Wnt5a^KD (40), Braf^V600EPten^−/−-CXCL5^KD, Braf^V600EPten^−/−-PDL1^KD, Braf^V600EPten^−/−-NLRP3^KD, OVA-expressing Braf^V600EPten^−/−, BRAF^V600EPTEN^−/−-STAT3^CA, and Braf^V600EPten^−/−-NTC (40) cell lines were generated using shRNA-expressing lentiviral vectors and cultured as previously described (40): shNLRP3 (Sigma, SHCLN-NM_145827), shPDL1 (Sigma, SHCLND-NM_021893), shWnt5a (Sigma, SHCLND-NM_009524), shTLR4 (Sigma, SHCLNG-NM_025817, and pLKO.1-puro empty vector control (NTC) (Sigma, SHC001). Stable cell lines were selected by puromycin resistance (Sigma-Aldrich, P8833). Murine Lewis Lung Carcinoma (LLC) cell line is from ATCC (1704526). All cell lines were tested Mycoplasma-free by Duke University Cell Culture Facility shared services. All Braf^V600EPten^−/− cell lines and the LLC cell line were maintained at 37° C. in DMEM (Invitrogen) with 2 mM L-glutamine, supplemented with 10% fetal bovine serum, 100 units/ml penicillin. Depending on the experiment, cell lines were treated with Wnt5a (100-200 ng/ml, R&D Systems/Bio-techne, 645-WN-010), IFNγ (100 ng/ml, BioAbChem, 42-IFNg), anti-PD-L1 ab (1-2 μg/ml), Hsp70 (1 μM-10 μM, Enzo, ADI-ESP-502-D), Hsp70 inhibitor (ThermoFisher, VER155008), CLI-095 TLR4 inhibitor (3 μM-10 μM, Invivogen, tlrl-cli95), TLR2-IN-C29 TLR2 inhibitor (1 μM-10 μM, Glixx, GLXC-06203), MPLA TLR4 agonist (10 μM, Enzo, ALX-581-205-C100), LPS (Lipopolysaccharide) (10 ng, Sigma-Aldrich, L4391-1MG), ATP (1 mM-5 mM, Invivogen, tlrl-atpl), MCC950 NLRP3 inhibitor (2.5 μM-10 μM, Invivogen, inh-mcc), XAV939 β-catenin inhibitor (0.5-1.0 μM, Sigma-Aldrich, X3004-5MG), 2-Aminopurine PKR inhibitor (1 mM-5 mM, Invivogen, tlrl-apr), Verteporfin YAP inhibitor (0.1 μM-1 μM, R&D Systems/Bio-techne, 530510) or vehicle control either for 24 or 48 hrs prior to in vitro and in vivo experiments. Control siRNA (Santa Cruz, sc-37007). TLR4 siRNA (SantaCruz, sc-40261).
OT-1 CD8 cell activation was performed by incubating isolated splenocytes of OT-1 transgenic mice with IL-2 (100 U/ml) and SIINFEKL peptide (1 μg/ml, New England Peptide, BP10-915) for 3 days followed by magnetic bead CD8 purification according to the manufacturer's instructions (Miltenyi biotec, 130-104-075). Activated OT-1 CD8 cells were incubated with Braf^V600EPten^−/−-OVA cells and treated with anti-PD1 ab (1 μg/ml) for 72 hrs at a tumor cell:CD8^+ T cell ratio of 1:5. In separate experiments, Braf^V600EPten^−/− cells were treated with increasing concentrations of Dacarbazine (10 μmol-400 μmol).
Tumor tissue or cells were homogenized in NP40 lysis buffer (Sigma-Aldrich) supplemented with complete protease inhibitor and phosphatase inhibitor (Roche). Cells were lysed in Laemmli sample buffer after treatment and subjected to SDS-polyacrylamide gel electrophoresis. After transferring onto PVDF membranes (Bio-Rad), monoclonal and polyclonal primary antibodies and appropriate HRP-conjugated secondary antibodies were utilized for blotting. For the immunoprecipitation assays, cells were lysed with TBS buffer (50 mM Tris-HCl (pH 7.4), 150 mM NaCl) containing 0.5% Triton X-100, EDTA-free protease inhibitor cocktail and phosphatase inhibitor cocktail, precleared with protein A/G beads, and then incubated with 1 μg of appropriate antibodies or isotype control IgG on a rotator overnight at 4° C. then incubated with protein A/G-agarose at 4° C. for 1 hour. After 5 washes with TBS buffer, immunoprecipitated complexes were eluted in sample buffer by boiling and subjected to immunoblot analysis. Immunoblots were visualized by chemiluminescence substrate (ThermoFisher) and imaged by a ChemiDoc XRSplus system (BioRad). For the ASC polymerization assay, cells were lysed with TBS buffer containing 0.5% Triton X-100, EDTA-free protease inhibitor cocktail and phosphatase inhibitor cocktail. The lysates were centrifuged at 4,000 g at 4° C. for 15 min. […]

[2] = test system: BRAFV600EPTEN−/− melanoma cells; assay: MTT cell proliferation assay in culture; format: cell-based, mouse; settings: NLRP3 inhibitor (MCC950) in culture
Description: FIG. 14A-H. (A) NLRP3 Western blot analysis of NTC and NLRP3KD BRAFV600EPTEN−/− melanoma cells. (B) Representative dot plots of PMN-MDSC and CD8+ T cell flow cytometry analysis of resected BRAFV600EPTEN^−/−-NTC and BRAFV600EPTEN^−/−-NLRP3KD stable cell lines. Representative of 2 independent experiments. (C) Top, MTT cell proliferation assay of BRAFV600EPTEN^−/−-NTC, BRAFV600EPTEN−/−-NLRP3KD, BRAFV600EPTEN^−/−-PDL1KD stable cell lines in culture. ns, non-significant. Bottom, MTT cell proliferation assay of BRAFV600EPTEN−/−melanoma cells following treatment with NLRP3 inhibitor (MCC950) in culture. Each performed in triplicate. (D) Tumor growth curve of BRAFV600EPTEN^−/−-NLRP3KDmelanomas with CD8+ T cell ablation. Mice treated with anti-CD8 ab ip daily×3 days followed by anti-CD8 ab one week later (gray boxes). BRAFV600EPTEN^−/−-NTC control tumors also included (n=5). (E) Plasma HSP70 ELISA of BRAFV600EPTEN^−/− melanoma-bearing mice following treatment with IgG isotype control ab, anti-PD-1 ab, or anti-PD-1 ab+MCC950 NLRP3 inhibitor (NLRP3i) (n=4/group). NTC, non-targeted control. KD, knockdown. (F) IL-1β qrt-PCR analysis of BRAFV600EPTEN−/− melanoma cells (n=3). Data normalized to TLR9 expression. (G) Above, IL-1β ELISA of BRAFV600EPTEN−/−-melanoma cell line supernatant after IFNγ/anti-PD-L1 ab treatment in vitro (n=3). […]

## CC(C)(O)c1coc(S(=O)(=O)NC(=O)Nc2c3c(cc4c2CCC4)CCC3)c1 [MCC950, N-[[(1,2,3,5,6,7-hexahydro-s-indacen-4-yl)amino]carbonyl]-4-(1-hydroxy-1-methylethyl)-2-furansulfonamide]
[1]
  ATP stimulation of HSP70 release: block
[2]
  impact on tumor cell proliferation in vitro: neither pharmacologic inhibition of NLRP3 nor genetic silencing of Nlrp3 had any impact
